This is an account of results in US11655268B2, “Nucleoside or nucleotide derivatives, and uses thereof” (ST Pharm Co., Ltd., priority 2018, dated 2023).

One data set deals with DENV. Nature of the data set: Reduction in viral infection, dengue virus in Vero cells, immunofluorescence (4G2 antibody). Conditions: 72 h, read-out: EC50 DENV. Format: cell-based, Dengue virus New Guinea C (NGC).
Data set [1] can be described thus: Cytotoxicity (CC50) in Vero cells. Conditions: African green monkey, CC50 (DENV), Vero cells, DENV test.
A further data set concerns MERS-CoV. Nature of the data set: microbe, parasite or virus in culture. Conditions: Middle East respiratory syndrome-related coronavirus, Huh-7, 72 h, read-out: EC50 MERS-CoV. Format: cell-based, MERS virus (MERS-CoV/KOR/KNIH/002_05_2015).
Data set [2] in a line: in vitro. The following applies: human.
In the next data set the test system is Influenza virus B/Lee/40. Nature of the data set: Cytopathic effect reduction, influenza B Lee in MDCK cells, MTT. In kind it is cell-based. The following applies: for Selectivity index FluB Lee: CC50/EC50; for EC50: MDCK, 72 h, read-out: Anti-Flu activity EC50 FluB Lee. (Damage to the host cells serves as the signal in cytopathic effect assays.)
Data set [3] can be described thus: in vitro. Conditions: dog.
A further data set relates to hCoV (229E). Nature of the data set: microbe, parasite or virus in culture. The following applies: MRC5, 72 h; MRC-5 cells, day 3 after infection; read-out: EC50 hCoV (229E). Format: cell-based, Human coronavirus hCoV 229E.
Data set [4] in a line: in vitro. Conditions: human. The source holds these as a separate data set.

As a reminder, the EC50 is the concentration giving half of the maximal effect.

Counter-ions that a name gives are not always drawn.

As for `O=C(Nc1ccn(C2O[C@H](CO)[C@@H](O)[C@H]2F)c(=O)n1)c1cccnc1` (stereo in doubt) [Example 26, N-(1-((2S,3R,4R,5R)-3-fluoro-4-hydroxy-5-(hydroxymethyl)tetrahydrofuran-2-yl)-2-oxo-1,2-dihydropyrimidin-4-yl)nicotinamide], in the data set with DENV, the concentration giving a half-maximal response (EC50) came out at 57.7 µM. Besides, the CC50 at 3 days in data set [1] was above 100 µM.
In the case of `Cc1ccc(C(=O)Nc2ccn(C3O[C@H](CO)[C@@H](O)[C@H]3F)c(=O)n2)cn1` (stereo in doubt) [Example 32, N-(1-((2S,3R,4R,5R)-3-fluoro-4-hydroxy-5-(hydroxymethyl)tetrahydrofuran-2-yl)-2-oxo-1,2-dihydropyrimidin-4-yl)-6-methylnicotinamide], in the data set with MERS-CoV, the 50% effective concentration (EC50) is above 100 µM. The compound further registered a CC50 at 3 days in the data set “in vitro [2]” above 100 µM.
On to `Cc1cncc(C(=O)Nc2ccn(C3O[C@H](CO)[C@@H](O)[C@H]3F)c(=O)n2)n1` (stereo in doubt) [Example 34, N-(1-((2S,3R,4R,5R)-3-fluoro-4-hydroxy-5-(hydroxymethyl)tetrahydrofuran-2-yl)-2-oxo-1,2-dihydropyrimidin-4-yl)-6-methylpyrazine-2-carboxamide], for which the “Selectivity index FluB Lee” value in the data set on Influenza virus B/Lee/40 was above 9.0. Further, the EC50 was 11.1 µM in the data set with Influenza virus B/Lee/40 and above 100 µM with MERS-CoV. Also, the CC50 at 3 days in the data set “in vitro [3]” and in “in vitro [2]” was above 100 µM in each case.
`O=C(Nc1ccn(C2O[C@H](CO)[C@@H](O)[C@H]2F)c(=O)n1)c1ccc(F)cn1` (stereo in doubt) [Example 35, 5-Fluoro-N-(1-((2S,3R,4R,5R)-3-fluoro-4-hydroxy-5-(hydroxymethyl)tetrahydrofuran-2-yl)-2-oxo-1,2-dihydropyrimidin-4-yl)picolinamide]: the “Selectivity index FluB Lee” value with Influenza virus B/Lee/40 is reported as above 2.7. Besides, the concentration giving a half-maximal response (EC50) in the data set on Influenza virus B/Lee/40 is 37.4 µM; with MERS-CoV it was above 100 µM. For the same compound, the CC50 at 3 days in “in vitro [3]” and in “in vitro [2]” was above 100 µM throughout.
With `O=C(Nc1ccn(C2O[C@H](CO)[C@@H](O)[C@H]2F)c(=O)n1)c1ccc(C(F)(F)F)nc1` (stereo in doubt) [Example 41, N-(1-((2S,3R,4R,5R)-3-fluoro-4-hydroxy-5-(hydroxymethyl)tetrahydrofuran-2-yl)-2-oxo-1,2-dihydropyrimidin-4-yl)-6-(trifluoromethyl)nicotinamide], in the data set with Influenza virus B/Lee/40, the “Selectivity index FluB Lee” value is above 5.3 and the EC50 was 18.9 µM. In the data set “in vitro [3]”, the CC50 at 3 days was above 100 µM.
The corresponding values for `O=C(Nc1ccn(C2O[C@H](CO)[C@@H](O)[C@H]2F)c(=O)n1)c1ccc(F)nc1` (stereo in doubt) [Example 42, 6-Fluoro-N-(1-((2S,3R,4R,5R)-3-fluoro-4-hydroxy-5-(hydroxymethyl)tetrahydrofuran-2-yl)-2-oxo-1,2-dihydropyrimidin-4-yl)nicotinamide] are above 5.5, 18.3 µM and above 100 µM.
Take `NC12CC3CC(CC(C3)C1)C2` [AMT, amantadine hydrochloride, reference compound]: the EC50 with Influenza virus B/Lee/40 was above 100 µM. Moreover, the CC50 in the data set “in vitro [3]” was above 100 µM.
Consider `Cc1cccnc1C(=O)Nc1ccn([C@@H]2O[C@H](CO)[C@@H](O)C2(F)F)c(=O)n1` [Example 12, N-(1-((2R,4R,5R)-3,3-difluoro-4-hydroxy-5-(hydroxymethyl)tetrahydrofuran-2-yl)-2-oxo-1,2-dihydropyrimidin-4-yl)-3-methylpicolinamide], for which, in the data set on Influenza virus B/Lee/40, the “Selectivity index FluB Lee” value is above 2.0. For the same compound, the EC50 in the data set with Influenza virus B/Lee/40 came out at 49.1 µM; with hCoV (229E) it was 12.2 µM; in the data set with DENV, 6.16 µM. Besides, the CC50 at 3 days (in the data set “in vitro [3]”; in data set [1]) was above 100 µM each time. For the same compound, the CC50 in “in vitro [4]” is above 100 µM.
For `O=C(Nc1ccn([C@@H]2O[C@H](CO)[C@@H](O)C2(F)F)c(=O)n1)c1ccc(C(F)(F)F)nc1` [Example 14, N-(1-((2R,4R,5R)-3,3-difluoro-4-hydroxy-5-(hydroxymethyl)tetrahydrofuran-2-yl)-2-oxo-1,2-dihydropyrimidin-4-yl)-6-(trifluoromethyl)nicotinamide], in the data set with Influenza virus B/Lee/40, the “Selectivity index FluB Lee” value was above 32.3 and the half-maximal effective concentration (EC50) was determined as 3.1 µM. Also, the CC50 at 3 days in “in vitro [3]” was above 100 µM.
The corresponding values for `Cn1cc(C(=O)Nc2ccn([C@@H]3O[C@H](CO)[C@@H](O)C3(F)F)c(=O)n2)cn1` [Example 15, N-(1-((2R,4R,5R)-3,3-difluoro-4-hydroxy-5-(hydroxymethyl)tetrahydrofuran-2-yl)-2-oxo-1,2-dihydropyrimidin-4-yl)-1-methyl-1H-pyrazole-4-carboxamide] are 12.5, 8 µM and above 100 µM.
For `O=C(Nc1ccn([C@@H]2O[C@H](CO)[C@@H](O)C2(F)F)c(=O)n1)c1cccc(-c2ccccc2)n1` [Example 17, N-(1-((2R,4R,5R)-3,3-difluoro-4-hydroxy-5-(hydroxymethyl)tetrahydrofuran-2-yl)-2-oxo-1,2-dihydropyrimidin-4-yl)-6-phenylpicolinamide], the “Selectivity index FluB Lee” value in the data set with Influenza virus B/Lee/40 is reported as above 41.7. The results for the EC50 in the data set with Influenza virus B/Lee/40 and in the data set with DENV were 2.4 µM and below 1.2 µM, respectively. Moreover, the CC50 at 3 days in “in vitro [3]” was above 100 µM; in data set [1] it was 58.9 µM.
Consider `O=C(Nc1ccn([C@@H]2O[C@H](CO)[C@@H](O)C2(F)F)c(=O)n1)c1ccc([N+](=O)[O-])cn1` [Example 19, N-(1-((2R,4R,5R)-3,3-difluoro-4-hydroxy-5-(hydroxymethyl)tetrahydrofuran-2-yl)-2-oxo-1,2-dihydropyrimidin-4-yl)-5-nitropicolinamide], for which, in the data set on Influenza virus B/Lee/40, the “Selectivity index FluB Lee” value is above 83.3. Also, the EC50 in the data set with Influenza virus B/Lee/40 and in the data set with DENV was below 1.2 µM in each case. The figures for the CC50 at 3 days (in “in vitro [3]”; in data set [1]) were above 100 µM and below 1.2 µM, respectively.
`Cl.Nc1ccc(C(=O)Nc2ccn([C@@H]3O[C@H](CO)[C@@H](O)C3(F)F)c(=O)n2)nc1` [Example 20, 5-amino-N-(1-((2R,4R,5R)-3,3-difluoro-4-hydroxy-5-(hydroxymethyl)tetrahydrofuran-2-yl)-2-oxo-1,2-dihydropyrimidin-4-yl)picolinamide-hydrochloride]: in the data set on Influenza virus B/Lee/40, the “Selectivity index FluB Lee” value is above 5.1 and the EC50 was 19.5 µM. The EC50 in the data set with DENV was found to be 1.6 µM. The CC50 in “in vitro [3]” was above 100 µM. In data set [1], this compound had a CC50 at 3 days of 75.9 µM.
Turning to `COc1ccc(C(=O)Nc2ccn([C@@H]3O[C@H](CO)[C@@H](O)C3(F)F)c(=O)n2)nc1` [Example 21, N-(1-((2R,4R,5R)-3,3-difluoro-4-hydroxy-5-(hydroxymethyl)tetrahydrofuran-2-yl)-2-oxo-1,2-dihydropyrimidin-4-yl)-5-methoxypicolinamide], in the data set on Influenza virus B/Lee/40, the “Selectivity index FluB Lee” value is above 4.5. Further, the EC50 worked out at 22.3 µM in the data set on Influenza virus B/Lee/40 and 1.3 µM with DENV. For the same compound, the CC50 at 3 days (in the data set “in vitro [3]”; in data set [1]) was above 100 µM throughout.
For the compound `COc1ccc(C(=O)Nc2ccn([C@@H]3O[C@H](CO)[C@@H](O)C3(F)F)c(=O)n2)cn1` [Example 22, N-(1-((2R,4R,5R)-3,3-difluoro-4-hydroxy-5-(hydroxymethyl)tetrahydrofuran-2-yl)-2-oxo-1,2-dihydropyrimidin-4-yl)-6-methoxynicotinamide], the “Selectivity index FluB Lee” value in the data set on Influenza virus B/Lee/40 is recorded as above 4.1. Further, the values for the EC50 with Influenza virus B/Lee/40 and in the data set with DENV were 24.4 µM and below 1.2 µM, respectively. Also, the CC50 at 3 days was above 100 µM in “in vitro [3]” and below 1.2 µM in data set [1].
Consider `O=C(Nc1ccn([C@@H]2O[C@H](CO)[C@@H](O)C2(F)F)c(=O)n1)c1ccc(Cl)nc1` [Example 23, 6-Chloro-N-(1-((2R,4R,5R)-3,3-difluoro-4-hydroxy-5-(hydroxymethyl)tetrahydrofuran-2-yl)-2-oxo-1,2-dihydropyrimidin-4-yl)nicotinamide], for which the “Selectivity index FluB Lee” value in the data set on Influenza virus B/Lee/40 is above 16.1. Besides, the 50% effective concentration (EC50) in the data set on Influenza virus B/Lee/40 is 6.2 µM; with DENV it was below 1.2 µM. Also, the CC50 at 3 days in “in vitro [3]” was above 100 µM; in data set [1] it was below 1.2 µM.
With `Cc1nccc(C(=O)Nc2ccn([C@@H]3O[C@H](CO)[C@@H](O)C3(F)F)c(=O)n2)n1` [Example 24, N-(1-((2R,4R,5R)-3,3-difluoro-4-hydroxy-5-(hydroxymethyl)tetrahydrofuran-2-yl)-2-oxo-1,2-dihydropyrimidin-4-yl)-2-methylpyrimidin-4-carboxamide], in the data set on Influenza virus B/Lee/40, the “Selectivity index FluB Lee” value is given as above 83. The EC50 in the data set with Influenza virus B/Lee/40 and in the data set on DENV was below 1.2 µM each time. The values for the CC50 at 3 days (in “in vitro [3]”; in data set [1]) were above 100 µM and 55.4 µM, respectively.
For `O=C(Nc1ccn([C@@H]2O[C@H](CO)[C@@H](O)C2(F)F)c(=O)n1)c1ccc(-c2ccccc2)cn1` [Example 25, N-(1-((2R,4R,5R)-3,3-difluoro-4-hydroxy-5-(hydroxymethyl)tetrahydrofuran-2-yl)-2-oxo-1,2-dihydropyrimidin-4-yl)-5-phenylpicolinamide], the “Selectivity index FluB Lee” value in the data set with Influenza virus B/Lee/40 is listed as above 16.4. The EC50 with Influenza virus B/Lee/40 is 6.1 µM; in the data set with DENV, below 1.2 µM. Further, the results for the CC50 at 3 days (in “in vitro [3]”; in data set [1]) were above 100 µM and 29.5 µM, respectively.
Turning to `CCC(CC)O[C@@H]1C=C(C(=O)O)C[C@H](N)[C@H]1NC(C)=O` [OSV-C, oseltamivir carboxylate, reference compound], the EC50 in the data set with Influenza virus B/Lee/40 amounted to 1.46 µM.
Same read-out and setting: the result for `NC(=O)c1ncn([C@@H]2O[C@H](CO)[C@@H](O)[C@H]2O)n1` [RBV, ribavirin, reference compound] reads 40.6 µM.
